{"source": "patent US20100028878A1", "about": "“Modulators of UDP-glucose ceramide glucosyltransferase for treating acne or hyperkeratinization” (GALDERMA RESEARCH & DEVELOPMENT, priority 2006, published 2010)", "test_system": "mRNA for UGCG in the mouse preputial gland", "conditions": "gonadectomized male mice, medium-term treatment, effect visible at 96 hours", "procedure": "The expression of the genes was analyzed on an Affymetrix station (microfluidic model; hybridization oven; scanner; computer) following the protocols provided by the company. Briefly, the total RNA isolated from the tissues is transcribed to cDNA. From the double-stranded cDNA, a cRNA labeled with biotin is synthesized using T7 polymerase and a precursor NTP conjugated to biotin. The cRNAs are then fragmented to small sized fragments. All the molecular biology steps are checked using the Agilent “Lab on a chip” system in order to confirm the good efficiencies of the enzymatic reactions. The Affymetrix chip is hybridized with the biotinylated cRNA, rinsed and then fluorescence labeled using a fluorophore conjugated to streptavidin. After washings, the chip is scanned and the results are calculated using the MAS5 software provided by Affymetrix. An expression value is obtained for each gene as well as the indication of the significance of the value obtained.\nB. Male mice were gonadectomized and treated with the vehicle or DHT. The preputial glands were removed for a period ranging up to 4 days (androgenic treatment alone—observation of a short-term kinetics). The RNA was isolated and the expression of the genes was analyzed by the Affymetrix technique."}
{"smiles": "C[C@]12CCC(=O)C[C@@H]1CC[C@@H]1[C@@H]2CC[C@]2(C)[C@@H](O)CC[C@@H]12", "note": "[DHT, Dihydrotestosterone]", "values": [{"measurement": "mRNA for UGCG in the mouse preputial gland", "value": "reduced"}]}
